{"source": "paper PMC6704710", "about": "“Preclinical evaluation of 3D185, a novel potent inhibitor of FGFR1/2/3 and CSF-1R, in FGFR-dependent and macrophage-dominant cancer models” (Journal of Experimental & Clinical Cancer Research : CR, 2019)", "test_in_all_cases": "Eurofins kinase panel", "format_in_all_cases": "biochemical", "details_in_all_cases": "read-out: Inhibition rate (%)", "key": {"[1]": {"target": "T1, DNA-PK(h) (Homo sapiens, UniProt P78527)", "T1 construct": "purchased Eurofins (KinaseProfiler)"}, "[2]": {"target": "T2, MLCK(h) (Homo sapiens, UniProt Q15746)", "T2 construct": "purchased Eurofins (KinaseProfiler)"}, "[3]": {"target": "T3, Src(T341M)(h) (Homo sapiens, UniProt P12931, T341M)", "T3 construct": "purchased Eurofins (KinaseProfiler)", "T3 sequence (P12931 whole entry T341M)": "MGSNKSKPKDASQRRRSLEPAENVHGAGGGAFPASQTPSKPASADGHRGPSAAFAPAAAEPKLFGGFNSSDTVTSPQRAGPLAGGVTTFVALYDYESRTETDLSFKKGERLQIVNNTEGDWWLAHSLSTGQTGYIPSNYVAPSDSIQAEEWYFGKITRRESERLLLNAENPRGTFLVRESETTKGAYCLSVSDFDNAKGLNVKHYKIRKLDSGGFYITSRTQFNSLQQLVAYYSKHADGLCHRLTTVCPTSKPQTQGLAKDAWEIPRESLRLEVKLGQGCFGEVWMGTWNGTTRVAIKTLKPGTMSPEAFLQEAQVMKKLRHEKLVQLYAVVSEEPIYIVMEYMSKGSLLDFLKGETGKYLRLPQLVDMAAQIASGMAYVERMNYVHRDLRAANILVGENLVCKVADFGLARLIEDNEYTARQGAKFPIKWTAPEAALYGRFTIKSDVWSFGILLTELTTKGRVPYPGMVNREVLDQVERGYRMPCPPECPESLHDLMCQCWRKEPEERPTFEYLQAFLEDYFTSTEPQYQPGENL"}, "[4]": {"target": "T4, MLK2(h) (Homo sapiens, UniProt Q02779)", "T4 construct": "purchased Eurofins (KinaseProfiler)", "T4 sequence (Q02779 whole entry)": "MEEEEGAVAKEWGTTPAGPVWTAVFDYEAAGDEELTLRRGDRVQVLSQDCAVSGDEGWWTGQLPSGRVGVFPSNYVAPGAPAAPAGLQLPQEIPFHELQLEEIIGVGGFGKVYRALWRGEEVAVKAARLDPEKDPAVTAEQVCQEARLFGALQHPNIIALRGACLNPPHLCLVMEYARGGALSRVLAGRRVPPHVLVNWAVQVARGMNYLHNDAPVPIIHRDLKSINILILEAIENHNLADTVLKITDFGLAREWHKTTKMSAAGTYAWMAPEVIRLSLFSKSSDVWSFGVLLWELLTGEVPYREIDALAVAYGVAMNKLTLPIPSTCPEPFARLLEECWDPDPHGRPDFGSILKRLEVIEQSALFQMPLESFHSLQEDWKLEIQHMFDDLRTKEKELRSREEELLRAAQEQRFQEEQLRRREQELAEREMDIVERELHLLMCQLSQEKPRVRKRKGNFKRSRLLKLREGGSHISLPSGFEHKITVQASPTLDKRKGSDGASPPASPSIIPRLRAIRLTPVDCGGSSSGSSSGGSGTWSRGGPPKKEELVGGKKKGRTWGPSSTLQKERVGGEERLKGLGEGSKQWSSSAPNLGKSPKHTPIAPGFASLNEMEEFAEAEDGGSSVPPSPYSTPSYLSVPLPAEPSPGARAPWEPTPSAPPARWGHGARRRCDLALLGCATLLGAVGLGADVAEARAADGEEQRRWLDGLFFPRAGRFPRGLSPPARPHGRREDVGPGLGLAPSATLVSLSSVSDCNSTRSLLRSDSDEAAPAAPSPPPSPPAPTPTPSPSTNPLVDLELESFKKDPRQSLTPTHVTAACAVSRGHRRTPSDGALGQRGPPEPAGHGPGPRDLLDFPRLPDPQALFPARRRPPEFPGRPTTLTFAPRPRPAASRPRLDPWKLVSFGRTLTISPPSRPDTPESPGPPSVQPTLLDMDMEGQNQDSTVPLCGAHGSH"}, "[5]": {"target": "T5, MELK(h) (Homo sapiens, UniProt Q14680)", "T5 construct": "purchased Eurofins (KinaseProfiler)", "T5 sequence (Q14680 whole entry)": "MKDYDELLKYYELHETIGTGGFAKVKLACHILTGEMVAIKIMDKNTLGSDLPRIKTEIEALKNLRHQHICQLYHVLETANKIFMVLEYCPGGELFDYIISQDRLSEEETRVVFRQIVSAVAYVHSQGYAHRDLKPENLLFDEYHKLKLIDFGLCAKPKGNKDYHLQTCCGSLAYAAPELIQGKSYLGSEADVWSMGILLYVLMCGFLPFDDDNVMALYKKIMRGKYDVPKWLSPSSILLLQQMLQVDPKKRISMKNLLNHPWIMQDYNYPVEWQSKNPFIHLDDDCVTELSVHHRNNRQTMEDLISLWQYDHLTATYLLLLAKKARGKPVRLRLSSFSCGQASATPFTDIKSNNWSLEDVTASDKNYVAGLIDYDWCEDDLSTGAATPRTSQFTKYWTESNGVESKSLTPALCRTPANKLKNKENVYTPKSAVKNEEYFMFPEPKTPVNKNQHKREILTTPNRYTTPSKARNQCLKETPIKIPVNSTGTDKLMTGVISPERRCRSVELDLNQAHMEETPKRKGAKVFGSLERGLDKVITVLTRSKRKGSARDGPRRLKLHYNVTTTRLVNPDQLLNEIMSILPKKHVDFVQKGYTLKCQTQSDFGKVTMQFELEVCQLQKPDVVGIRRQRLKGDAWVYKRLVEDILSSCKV"}, "[6]": {"target": "T6, Plk1(h) (Homo sapiens, UniProt P53350)", "T6 construct": "purchased Eurofins (KinaseProfiler)", "T6 sequence (P53350 whole entry)": "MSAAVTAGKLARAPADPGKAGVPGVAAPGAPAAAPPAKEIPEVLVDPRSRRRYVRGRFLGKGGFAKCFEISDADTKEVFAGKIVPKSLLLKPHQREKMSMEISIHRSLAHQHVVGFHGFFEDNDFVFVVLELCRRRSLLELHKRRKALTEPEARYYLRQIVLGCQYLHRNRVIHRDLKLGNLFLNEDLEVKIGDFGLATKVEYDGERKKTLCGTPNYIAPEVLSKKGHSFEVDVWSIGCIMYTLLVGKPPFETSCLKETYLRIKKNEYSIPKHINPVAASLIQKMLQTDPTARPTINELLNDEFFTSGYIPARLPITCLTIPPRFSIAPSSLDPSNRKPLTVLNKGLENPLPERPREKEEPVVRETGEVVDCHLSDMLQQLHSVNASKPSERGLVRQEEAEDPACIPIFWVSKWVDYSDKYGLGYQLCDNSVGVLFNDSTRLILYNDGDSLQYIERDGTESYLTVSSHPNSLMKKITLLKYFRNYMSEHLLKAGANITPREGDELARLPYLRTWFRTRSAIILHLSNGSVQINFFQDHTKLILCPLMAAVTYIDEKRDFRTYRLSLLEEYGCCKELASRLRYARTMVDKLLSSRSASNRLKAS"}, "[7]": {"target": "T7, ROCK-II(h) (Homo sapiens, UniProt O75116)", "T7 construct": "purchased Eurofins (KinaseProfiler)", "T7 sequence (O75116 whole entry)": "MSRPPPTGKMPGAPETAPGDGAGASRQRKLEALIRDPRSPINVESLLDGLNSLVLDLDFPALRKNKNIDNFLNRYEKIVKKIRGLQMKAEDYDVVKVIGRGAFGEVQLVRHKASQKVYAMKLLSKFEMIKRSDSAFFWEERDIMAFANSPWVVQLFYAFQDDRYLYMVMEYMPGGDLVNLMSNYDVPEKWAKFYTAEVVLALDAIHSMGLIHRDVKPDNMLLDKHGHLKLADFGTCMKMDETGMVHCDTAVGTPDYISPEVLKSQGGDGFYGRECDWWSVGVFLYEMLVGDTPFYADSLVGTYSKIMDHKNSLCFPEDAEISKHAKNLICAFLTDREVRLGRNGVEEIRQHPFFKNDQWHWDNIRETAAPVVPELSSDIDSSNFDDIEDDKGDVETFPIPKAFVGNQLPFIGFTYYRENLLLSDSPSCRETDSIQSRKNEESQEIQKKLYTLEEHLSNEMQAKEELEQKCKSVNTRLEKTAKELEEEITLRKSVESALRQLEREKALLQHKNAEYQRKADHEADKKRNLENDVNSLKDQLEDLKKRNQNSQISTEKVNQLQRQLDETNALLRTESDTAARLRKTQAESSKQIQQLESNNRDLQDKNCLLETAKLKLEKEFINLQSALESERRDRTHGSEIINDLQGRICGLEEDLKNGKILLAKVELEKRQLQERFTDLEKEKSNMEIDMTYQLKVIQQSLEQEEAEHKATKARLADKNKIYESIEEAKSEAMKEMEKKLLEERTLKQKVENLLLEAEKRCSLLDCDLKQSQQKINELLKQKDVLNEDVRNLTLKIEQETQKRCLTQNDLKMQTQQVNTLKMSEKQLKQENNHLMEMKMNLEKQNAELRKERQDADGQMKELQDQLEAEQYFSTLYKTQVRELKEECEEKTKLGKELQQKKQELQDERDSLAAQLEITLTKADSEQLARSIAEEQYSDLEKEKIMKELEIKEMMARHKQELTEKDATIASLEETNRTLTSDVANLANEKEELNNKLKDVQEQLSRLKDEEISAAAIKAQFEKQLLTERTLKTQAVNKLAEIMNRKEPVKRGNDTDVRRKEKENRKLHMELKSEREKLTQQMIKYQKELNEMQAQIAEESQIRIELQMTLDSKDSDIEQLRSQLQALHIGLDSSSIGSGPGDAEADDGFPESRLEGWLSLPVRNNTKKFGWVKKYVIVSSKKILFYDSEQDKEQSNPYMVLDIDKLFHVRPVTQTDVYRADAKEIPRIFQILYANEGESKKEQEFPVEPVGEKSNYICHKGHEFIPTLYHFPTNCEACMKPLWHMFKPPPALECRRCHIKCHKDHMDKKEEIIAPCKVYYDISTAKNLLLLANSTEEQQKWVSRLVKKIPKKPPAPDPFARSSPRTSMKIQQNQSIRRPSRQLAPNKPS"}, "[8]": {"target": "T8, LKB1(h) (Homo sapiens, UniProt Q15831)", "T8 construct": "purchased Eurofins (KinaseProfiler)", "T8 sequence (Q15831 1-433)": "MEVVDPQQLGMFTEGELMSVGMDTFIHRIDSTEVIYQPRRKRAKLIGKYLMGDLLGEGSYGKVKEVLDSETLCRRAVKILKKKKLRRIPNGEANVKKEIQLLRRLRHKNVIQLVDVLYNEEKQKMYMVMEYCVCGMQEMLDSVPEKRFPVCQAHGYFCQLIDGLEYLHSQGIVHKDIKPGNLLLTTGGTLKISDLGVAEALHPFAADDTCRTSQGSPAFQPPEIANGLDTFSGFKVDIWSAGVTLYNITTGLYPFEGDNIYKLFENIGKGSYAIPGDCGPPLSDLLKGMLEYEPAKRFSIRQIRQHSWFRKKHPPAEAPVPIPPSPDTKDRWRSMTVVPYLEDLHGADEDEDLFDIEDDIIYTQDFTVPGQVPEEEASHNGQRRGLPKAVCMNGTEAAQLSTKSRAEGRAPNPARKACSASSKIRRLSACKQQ", "T8 sequence (Q7RTN6 1-431 partner)": "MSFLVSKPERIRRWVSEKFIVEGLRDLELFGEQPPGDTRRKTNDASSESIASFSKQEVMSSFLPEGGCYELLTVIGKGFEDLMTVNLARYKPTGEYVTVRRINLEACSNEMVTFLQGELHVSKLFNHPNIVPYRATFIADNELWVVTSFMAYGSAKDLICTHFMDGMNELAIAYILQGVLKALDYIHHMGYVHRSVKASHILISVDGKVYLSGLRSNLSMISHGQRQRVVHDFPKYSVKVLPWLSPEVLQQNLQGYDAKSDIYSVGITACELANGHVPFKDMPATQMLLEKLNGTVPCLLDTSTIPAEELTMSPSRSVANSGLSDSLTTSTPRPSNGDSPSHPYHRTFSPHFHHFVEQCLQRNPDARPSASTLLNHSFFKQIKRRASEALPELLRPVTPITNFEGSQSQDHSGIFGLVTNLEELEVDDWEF", "T8 sequence (Q9Y376 1-341 partner)": "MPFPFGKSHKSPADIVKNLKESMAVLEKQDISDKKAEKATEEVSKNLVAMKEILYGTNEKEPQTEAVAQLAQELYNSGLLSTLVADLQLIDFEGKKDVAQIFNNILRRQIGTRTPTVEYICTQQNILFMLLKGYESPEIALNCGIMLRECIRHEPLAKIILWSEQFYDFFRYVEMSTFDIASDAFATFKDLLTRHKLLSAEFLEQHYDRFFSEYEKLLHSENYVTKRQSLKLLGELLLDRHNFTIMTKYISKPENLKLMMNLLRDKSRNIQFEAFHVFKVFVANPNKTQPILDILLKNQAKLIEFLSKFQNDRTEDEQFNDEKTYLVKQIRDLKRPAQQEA"}, "[9]": {"target": "T9, TLK1(h) (Homo sapiens, UniProt Q9UKI8)", "T9 construct": "purchased Eurofins (KinaseProfiler)", "T9 sequence (Q9UKI8 1-766)": "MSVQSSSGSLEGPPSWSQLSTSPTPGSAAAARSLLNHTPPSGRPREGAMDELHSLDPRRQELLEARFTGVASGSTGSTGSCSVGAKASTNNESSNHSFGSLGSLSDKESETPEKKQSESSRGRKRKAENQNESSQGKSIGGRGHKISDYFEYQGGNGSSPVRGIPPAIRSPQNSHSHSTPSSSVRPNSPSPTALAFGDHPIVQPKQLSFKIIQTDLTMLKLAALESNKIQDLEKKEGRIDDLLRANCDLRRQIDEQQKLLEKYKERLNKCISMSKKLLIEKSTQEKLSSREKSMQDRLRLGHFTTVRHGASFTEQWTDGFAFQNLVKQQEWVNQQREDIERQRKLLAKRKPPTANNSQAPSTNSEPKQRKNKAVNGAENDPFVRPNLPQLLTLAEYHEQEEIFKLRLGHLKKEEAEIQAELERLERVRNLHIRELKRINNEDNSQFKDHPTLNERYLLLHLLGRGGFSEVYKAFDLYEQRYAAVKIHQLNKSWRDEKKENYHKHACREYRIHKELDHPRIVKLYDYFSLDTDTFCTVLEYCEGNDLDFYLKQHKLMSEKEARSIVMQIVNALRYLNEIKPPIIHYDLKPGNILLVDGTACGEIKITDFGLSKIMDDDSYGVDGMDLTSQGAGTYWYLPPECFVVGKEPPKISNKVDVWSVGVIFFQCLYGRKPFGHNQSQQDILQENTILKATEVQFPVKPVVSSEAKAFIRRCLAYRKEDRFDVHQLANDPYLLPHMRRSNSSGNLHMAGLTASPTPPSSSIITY"}}}
{"smiles": "COc1cc(OC)c(Cl)c(-c2ccc3c(NC(=O)c4ccc(N5CCNC(C)(C)C5)cc4)n[nH]c3n2)c1Cl", "note": "[3D185]", "values": [{"measurement": "inhibition at 0.01 µM", "setting": "[1]; 10 nM", "result": 5, "unit": "%"}, {"measurement": "inhibition at 0.1 µM", "setting": "[1]; 100 nM", "result": 2, "unit": "%"}, {"measurement": "inhibition at 1 µM", "setting": "[1]; 1000 nM", "result": 0, "unit": "%"}, {"measurement": "inhibition at 0.01 µM", "setting": "[2]; 10 nM", "result": 5, "unit": "%"}, {"measurement": "inhibition at 0.1 µM", "setting": "[2]; 100 nM", "result": -1, "unit": "%"}, {"measurement": "inhibition at 1 µM", "setting": "[2]; 1000 nM", "result": 11, "unit": "%"}, {"measurement": "inhibition at 0.01 µM", "setting": "[3]; 10 nM", "result": 8, "unit": "%"}, {"measurement": "inhibition at 0.1 µM", "setting": "[3]; 100 nM", "result": 33, "unit": "%"}, {"measurement": "inhibition at 1 µM", "setting": "[3]; 1000 nM", "result": 88, "unit": "%"}, {"measurement": "inhibition at 0.01 µM", "setting": "[4]; 10 nM", "result": 4, "unit": "%"}, {"measurement": "inhibition at 0.1 µM", "setting": "[4]; 100 nM", "result": 2, "unit": "%"}, {"measurement": "inhibition at 1 µM", "setting": "[4]; 1000 nM", "result": 24, "unit": "%"}, {"measurement": "inhibition at 0.01 µM", "setting": "[5]; 10 nM", "result": -1, "unit": "%"}, {"measurement": "inhibition at 0.1 µM", "setting": "[5]; 100 nM", "result": 8, "unit": "%"}, {"measurement": "inhibition at 1 µM", "setting": "[5]; 1000 nM", "result": 14, "unit": "%"}, {"measurement": "inhibition at 0.01 µM", "setting": "[6]; 10 nM", "result": -6, "unit": "%"}, {"measurement": "inhibition at 0.1 µM", "setting": "[6]; 100 nM", "result": 2, "unit": "%"}, {"measurement": "inhibition at 1 µM", "setting": "[6]; 1000 nM", "result": -4, "unit": "%"}, {"measurement": "inhibition at 0.01 µM", "setting": "[7]; 10 nM", "result": 0, "unit": "%"}, {"measurement": "inhibition at 0.1 µM", "setting": "[7]; 100 nM", "result": -1, "unit": "%"}, {"measurement": "inhibition at 1 µM", "setting": "[7]; 1000 nM", "result": -1, "unit": "%"}, {"measurement": "inhibition at 0.01 µM", "setting": "[8]; 10 nM", "result": -9, "unit": "%"}, {"measurement": "inhibition at 0.1 µM", "setting": "[8]; 100 nM", "result": 7, "unit": "%"}, {"measurement": "inhibition at 1 µM", "setting": "[8]; 1000 nM", "result": 2, "unit": "%"}, {"measurement": "inhibition at 0.01 µM", "setting": "[9]; 10 nM", "result": -1, "unit": "%"}, {"measurement": "inhibition at 0.1 µM", "setting": "[9]; 100 nM", "result": -4, "unit": "%"}, {"measurement": "inhibition at 1 µM", "setting": "[9]; 1000 nM", "result": -8, "unit": "%"}]}
